From patent US11384055B2 (BIOMARIN PHARMACEUTICAL INC., priority 2017, dated 2022)
Like-named read-outs stand apart in the source and are kept apart here.

Target: T1, Human GO (Homo sapiens, UniProt Q9UJM8)
T1 construct: purchased Novus Biologicals NBP1-72412
T1 sequence (Q9UJM8 1-370): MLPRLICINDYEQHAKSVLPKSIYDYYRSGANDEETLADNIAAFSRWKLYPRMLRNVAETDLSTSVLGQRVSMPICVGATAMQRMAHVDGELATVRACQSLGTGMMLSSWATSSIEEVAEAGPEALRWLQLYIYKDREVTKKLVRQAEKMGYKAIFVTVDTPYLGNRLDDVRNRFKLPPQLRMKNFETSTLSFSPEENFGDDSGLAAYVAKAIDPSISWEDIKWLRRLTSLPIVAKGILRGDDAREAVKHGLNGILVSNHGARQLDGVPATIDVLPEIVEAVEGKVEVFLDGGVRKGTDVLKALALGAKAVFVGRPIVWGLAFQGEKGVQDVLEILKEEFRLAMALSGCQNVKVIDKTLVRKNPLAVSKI
Assay: GO enzymatic assay (coupled fluorescence/HRP assay, glycolate substrate)
Format: biochemical
How it was run: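 Coupled HRP/fluorescence read-out of glycolate oxidation by human GO in 50 mM potassium phosphate buffer (pH 7). Inhibitors added across a concentration range.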

[1] = Table 2, read-out: Range (range of IC50 values calculated from the enzymatic assays)
[2] = Table 3, read-out: Range (range of IC50 values calculated from the enzymatic assays)

O=C(O)c1[nH]nnc1Oc1ccc(C2CCCCC2)cc1 [Compound 273, 4-(4-cyclohexylphenoxy)-1H-1,2,3-triazole-5-carboxylic acid]
IC50: < 100 nM

O=C(O)c1[nH]nnc1OCc1ccc(-c2ccc(OC(F)(F)F)cc2)cc1 [Compound 274, 4-((4′-(trifluoromethoxy)-[1,1′-biphenyl]-4-yl)methoxy)-1H-1,2,3-triazole-5-carboxylic acid]
IC50 [1]: < 100 nM

O=C(O)c1[nH]nnc1OC1CCC(c2ccc(OC(F)(F)F)cc2)C1 (stereo not shown) [Compound 275, 4-((3-(4-(trifluoromethoxy)phenyl)cyclopentyl)oxy)-1H-1,2,3-triazole-5-carboxylic acid]
IC50 [1]: < 100 nM

O=C(O)c1[nH]nnc1SC1CCc2cc(Cl)c(Cl)cc2C1 (stereo not shown) [Compound 277, 4-((6,7-dichloro-1,2,3,4-tetrahydronaphthalen-2-yl)thio)-1H-1,2,3-triazole-5-carboxylic acid]
IC50 [1]: < 100 nM

O=C(OCOC(=O)c1[nH]nnc1Sc1ccc(-c2ccc(N3CCCCC3)cc2)cc1)c1ccccc1 [Compound 278, (benzoyloxy)methyl 4-((4′-(piperidin-1-yl)-[1,1′-biphenyl]-4-yl)thio)-1H-1,2,3-triazole-5-carboxylate]
IC50 [1]: 1000 to 10000 nM

O=C(O)c1[nH]nnc1Oc1ccc(C2CCC(F)(F)CC2)cc1 [Compound 279, 4-(4-(4,4-difluorocyclohexyl)phenoxy)-1H-1,2,3-triazole-5-carboxylic acid]
IC50 [1]: < 100 nM

O=C(O)c1[nH]nnc1OC1CCC2(CC1)CC2 [Compound 280, 4-(spiro[2.5]octan-6-yloxy)-1H-1,2,3-triazole-5-carboxylic acid 2,2,2-trifluoroacetate]
IC50 [1]: < 100 nM

CC1(C)CCCc2cc(Oc3nn[nH]c3C(=O)O)ccc21 [Compound 281, 4-((5,5-dimethyl-5,6,7,8-tetrahydronaphthalen-2-yl)oxy)-1H-1,2,3-triazole-5-carboxylic acid]
IC50 [1]: 100 to 1000 nM

O=C(O)c1[nH]nnc1OC1Cc2ccc(OC(F)(F)F)cc2C1 (stereo not shown) [Compound 282, 4-((5-(trifluoromethoxy)-2,3-dihydro-1H-inden-2-yl)oxy)-1H-1,2,3-triazole-5-carboxylic acid]
IC50 [1]: < 100 nM

O=C(O)c1[nH]nnc1OC1CCC2(CCCCC2)CC1 [Compound 283, 4-(spiro[5.5]undecan-3-yloxy)-1H-1,2,3-triazole-5-carboxylic acid]
IC50 [1]: < 100 nM

O=C(O)c1[nH]nnc1OC1CCC2(CCCC2)CC1 [Compound 284, 4-(spiro[4.5]decan-8-yloxy)-1H-1,2,3-triazole-5-carboxylic acid]
IC50 [1]: < 100 nM

O=C(O)c1[nH]nnc1OC1CCN(c2cc(Cl)cc(Cl)c2)CC1 [Compound 285, 4-((1-(3,5-dichlorophenyl)piperidin-4-yl)oxy)-1H-1,2,3-triazole-5-carboxylic acid 2,2,2-trifluoroacetate]
IC50 [1]: < 100 nM

O=C(O)c1[nH]nnc1OC1CCN(c2ccc(Cl)c(Cl)c2)CC1 [Compound 286, 4-((1-(3,4-dichlorophenyl)piperidin-4-yl)oxy)-1H-1,2,3-triazole-5-carboxylic acid 2,2,2-trifluoroacetate]
IC50 [1]: < 100 nM

O=C(O)c1[nH]nnc1OC1CCN(c2ccc(C(F)(F)F)cc2)CC1 [Compound 287, 4-((1-(4-(trifluoromethyl)phenyl)piperidin-4-yl)oxy)-1H-1,2,3-triazole-5-carboxylic acid 2,2,2-trifluoroacetate]
IC50 [1]: < 100 nM

O=C(O)c1[nH]nnc1Oc1cc(OCC2CC2)cc(C(F)(F)F)c1 [Compound 288, 4-(3-(cyclopropylmethoxy)-5-(trifluoromethyl)phenoxy)-1H-1,2,3-triazole-5-carboxylic acid]
IC50 [1]: 100 to 1000 nM

O=C(O)c1[nH]nnc1Oc1cc(Cl)cc(OCC2CC2)c1 [Compound 289, 4-(3-chloro-5-(cyclopropylmethoxy)phenoxy)-1H-1,2,3-triazole-5-carboxylic acid 2,2,2-trifluoroacetate]
IC50 [1]: < 100 nM

O=C(O)c1[nH]nnc1Oc1cccc(OCC2CCCC2)c1 [Compound 290, 4-(3-(cyclopentylmethoxy)phenoxy)-1H-1,2,3-triazole-5-carboxylic acid 2,2,2-trifluoroacetate]
IC50 [1]: < 100 nM

O=C(O)c1[nH]nnc1OC1CCN(c2cc(Cl)ccc2Cl)CC1 [Compound 291, 4-((1-(2,5-dichlorophenyl)piperidin-4-yl)oxy)-1H-1,2,3-triazole-5-carboxylic acid 2,2,2-trifluoroacetate]
IC50 [1]: < 100 nM

O=C(O)c1[nH]nnc1Oc1ccc(Cl)c(OCC2CC2)c1 [Compound 292, 4-(4-chloro-3-(cyclopropylmethoxy)phenoxy)-1H-1,2,3-triazole-5-carboxylic acid]
IC50 [1]: < 100 nM

O=C(O)c1[nH]nnc1Oc1cc(OCC2CC2)ccc1Cl [Compound 293, 4-(2-chloro-5-(cyclopropylmethoxy)phenoxy)-1H-1,2,3-triazole-5-carboxylic acid]
IC50 [1]: < 100 nM

O=C(O)c1[nH]nnc1OC(Cc1ccc(Cl)cc1)Cc1ccc(Cl)cc1 [Compound 294, 4-((1,3-bis(4-chlorophenyl)propan-2-yl)oxy)-1H-1,2,3-triazole-5-carboxylic acid]
IC50 [2]: < 100 nM

O=C(O)c1[nH]nnc1Oc1ccc(C(F)(F)F)c(OCC2CC2)c1 [Compound 295, 4-(3-(cyclopropylmethoxy)-4-(trifluoromethyl)phenoxy)-1H-1,2,3-triazole-5-carboxylic acid]
IC50 [1]: < 100 nM

O=C(O)c1[nH]nnc1OC(CCc1ccccc1)c1ccccc1 (stereo not shown) [Compound 296, 4-(1,3-diphenylpropoxy)-1H-1,2,3-triazole-5-carboxylic acid]
IC50 [2]: > 10000 nM

O=C(O)c1[nH]nnc1Oc1ccc(-c2ccc(N3CCC(F)(F)CC3)cc2)cc1 [Compound 297, 4-((4′-(4,4-difluoropiperidin-1-yl)-[1,1′-biphenyl]-4-yl)oxy)-1H-1,2,3-triazole-5-carboxylic acid 2,2,2-trifluoroacetate]
IC50 [1]: < 100 nM

O=C(O)c1[nH]nnc1OCC1CCC(c2ccc(OC(F)(F)F)cc2)CC1 (stereo not shown) [Compound 298, 4-((4-(4-(trifluoromethoxy)phenyl)cyclohexyl)methoxy)-1H-1,2,3-triazole-5-carboxylic acid]
IC50 [1]: < 100 nM

O=C(O)c1[nH]nnc1COc1ccc(-c2cc(Cl)cc(Cl)c2)cc1 [Compound 299, 4-(((3′,5′-dichloro-[1,1′-biphenyl]-4-yl)oxy)methyl)-1H-1,2,3-triazole-5-carboxylic acid]
IC50 [1]: < 100 nM

O=C(O)c1[nH]nnc1COc1ccc(-c2ccc(OC(F)(F)F)c(Cl)c2)cc1 [Compound 300, 4-(((3′-chloro-4′-(trifluoromethoxy)-[1,1′-biphenyl]-4-yl)oxy)methyl)-1H-1,2,3-triazole-5-carboxylic acid]
IC50 [1]: < 100 nM

O=C(O)c1[nH]nnc1Oc1ccc(N2CCC(F)(F)CC2)cc1 [Compound 301, 4-(4-(4,4-difluoropiperidin-1-yl)phenoxy)-1H-1,2,3-triazole-5-carboxylic acid 2,2,2-trifluoroacetate]
IC50 [1]: 100 to 1000 nM

O=C(OCOC(=O)C1CCCCC1)c1[nH]nnc1O[C@H]1CC[C@H](c2ccc(OC(F)(F)F)cc2)CC1 [Compound 303, ((cyclohexanecarbonyl)oxy)methyl 4-(((trans)-4-(4-(trifluoromethoxy)phenyl)cyclohexyl)oxy)-1H-1,2,3-triazole-5-carboxylate]
IC50 [1]: > 10000 nM

O=C(O)c1[nH]nnc1O[C@H]1CC[C@@H](c2cc(Cl)cc(Cl)c2)CC1 [Compound 304, 4-(((1s,4s)-4-(3,5-dichlorophenyl)cyclohexyl)oxy)-1H-1,2,3-triazole-5-carboxylic acid]
IC50 [1]: < 100 nM

O=C(OCOC(=O)c1[nH]nnc1O[C@H]1CC[C@H](c2ccc(OC(F)(F)F)cc2)CC1)c1ccccc1 [Compound 305, (benzoyloxy)methyl 4-(((trans)-4-(4-(trifluoromethoxy)phenyl)cyclohexyl)oxy)-1H-1,2,3-triazole-5-carboxylate]
IC50 [1]: > 10000 nM

O=C(O)c1[nH]nnc1Oc1ccc(C2CCC(N3CCCCC3)CC2)cc1 (stereo not shown) [Compound 306, 4-(4-(4-(piperidin-1-yl)cyclohexyl)phenoxy)-1H-1,2,3-triazole-5-carboxylic acid 2,2,2-trifluoroacetate]
IC50 [1]: 100 to 1000 nM

CC(C)C(=O)OCOC(=O)c1[nH]nnc1O[C@H]1CC[C@H](c2ccc(OC(F)(F)F)cc2)CC1 [Compound 307, (isobutyryloxy)methyl 4-(((trans)-4-(4-(trifluoromethoxy)phenyl)cyclohexyl)oxy)-1H-1,2,3-triazole-5-carboxylate]
IC50 [1]: 1000 to 10000 nM

O=C(O)c1[nH]nnc1O[C@H]1CC[C@@H](c2ccc(Cl)c(Cl)c2)CC1 [Compound 308-1, 4-(((cis)-4-(3,4-dichlorophenyl)cyclohexyl)oxy)-1H-1,2,3-triazole-5-carboxylic acid]
IC50 [1]: < 100 nM

O=C(O)c1[nH]nnc1O[C@H]1CC[C@H](c2ccc(Cl)c(Cl)c2)CC1 [Compound 308-2, 4-(((trans)-4-(3,4-dichlorophenyl)cyclohexyl)oxy)-1H-1,2,3-triazole-5-carboxylic acid]
IC50 [1]: < 100 nM

O=C(O)c1[nH]nnc1Oc1ccc(Cl)c(OCC2CCCCC2)c1 [Compound 309, 4-(4-chloro-3-(cyclohexylmethoxy)phenoxy)-1H-1,2,3-triazole-5-carboxylic acid]
IC50 [1]: < 100 nM

O=C(O)c1[nH]nnc1O[C@H]1CC[C@@H](c2ccc(C(F)(F)F)cc2)CC1 [Compound 310, 4-(((cis)-4-(4-(trifluoromethyl)phenyl)cyclohexyl)oxy)-1H-1,2,3-triazole-5-carboxylic acid]
IC50 [1]: < 100 nM
